Consider eleven molecules from patent publication US20240116985A1, “STAPLED PEPTIDES AND METHODS THEREOF” (priority 2020, published 2024).

The target in data set [1] is T1, full-length beta-Catenin (Uniprot ID P35222) (Homo sapiens, UniProt P35222).
T1 construct: 10 nM full-length beta-Catenin (Uniprot ID P35222)
T1 sequence (P35222 1-781): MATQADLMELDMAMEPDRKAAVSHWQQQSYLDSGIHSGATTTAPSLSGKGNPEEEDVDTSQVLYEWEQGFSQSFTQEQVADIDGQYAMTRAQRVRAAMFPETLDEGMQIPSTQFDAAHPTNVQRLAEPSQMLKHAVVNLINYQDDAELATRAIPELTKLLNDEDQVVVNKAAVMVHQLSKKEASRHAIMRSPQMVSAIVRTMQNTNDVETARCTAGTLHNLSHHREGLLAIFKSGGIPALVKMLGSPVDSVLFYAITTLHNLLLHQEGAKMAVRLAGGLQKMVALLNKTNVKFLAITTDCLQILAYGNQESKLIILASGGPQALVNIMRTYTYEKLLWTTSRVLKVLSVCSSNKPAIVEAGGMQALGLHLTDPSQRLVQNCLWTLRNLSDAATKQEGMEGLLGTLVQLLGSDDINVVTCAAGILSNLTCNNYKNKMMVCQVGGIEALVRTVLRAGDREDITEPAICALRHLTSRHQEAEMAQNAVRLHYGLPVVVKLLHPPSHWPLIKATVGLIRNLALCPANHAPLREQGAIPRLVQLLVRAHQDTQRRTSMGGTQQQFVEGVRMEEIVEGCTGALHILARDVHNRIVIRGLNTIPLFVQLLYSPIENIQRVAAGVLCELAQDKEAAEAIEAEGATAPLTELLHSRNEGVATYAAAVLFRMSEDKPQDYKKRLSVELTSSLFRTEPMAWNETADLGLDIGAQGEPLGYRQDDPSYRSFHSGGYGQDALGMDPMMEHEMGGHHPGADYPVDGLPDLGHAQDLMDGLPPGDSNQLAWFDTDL
The data set can be described thus: Fluorescence polarization IC50 (beta-catenin / 5FAM-TCF4 10-53 competition). It is filed as binding.

The nature of data set [2]: CHI Log D procedure. In kind it is physicochemical.
Setting [3] is: Table E2-1, read-out: beta-Catenin FP IC50.
The mark [4] stands for this setting: fluorescence polarization, beta-catenin, read-out: FP EC50.

Like-named read-outs stand apart in the source and are kept apart here.

Consider `CC(=O)N1CCC[C@]12CC=CCCCC1(CCCC=CCOC(=O)N(C)CCC[C@@](C)(C(=O)N[C@@H](Cc3ccccc3)C(=O)N[C@@H](Cc3c[nH]c4ccccc34)C(=O)N[C@@H](CCC(N)=O)C(N)=O)NC(=O)[C@H](C(C)C)NC(=O)[C@H](Cc3ccccc3)NC(=O)[C@H](C)NC(=O)[C@H](C)NC(=O)[C@H](CC(=O)O)NC(=O)[C@H](CC(=O)O)NC1=O)NC(=O)[C@H](C)NC(=O)[C@H](CC(=O)O)NC2=O` (stereo partly drawn) [I-54, Ac-PL3-Asp-Ala-B5-Asp-Asp-Ala-Ala-Phe-Val-SeN-Phe-Trp-Gln-NH2], for which the IC50 in data set [1] (setting [3]) and in data set [1] (setting [4]) was 3.19 µM throughout. Also, the “CHI Log D” value in data set [2] (pH 7.4) came out at 1.469. Take `CC(=O)N1CCC[C@]12CC=CCCCC1(CCCC=CCOC(=O)N(C)CC[C@@](C)(C(=O)N[C@@H](Cc3ccccc3)C(=O)N[C@@H](Cc3c[nH]c4ccccc34)C(=O)N[C@@H](CCC(N)=O)C(N)=O)NC(=O)[C@H](C(C)C)NC(=O)[C@H](Cc3ccccc3)NC(=O)[C@H](C)NC(=O)[C@H](C)NC(=O)[C@H](CC(=O)O)NC(=O)[C@H](CC(=O)O)NC1=O)NC(=O)[C@H](C)NC(=O)[C@H](CC(=O)O)NC2=O` (stereo partly drawn) [I-55, Ac-PL3-Asp-Ala-B5-Asp-Asp-Ala-Ala-Phe-Val-SdN-Phe-Trp-Gln-NH2]: the IC50 in data set [1] (setting [3]) stood at 5 µM. Moreover, the chromatographic logD in data set [2] (pH 7.4, CHI Log D) turned out to be 1.35. In the case of `CC(=O)N[C@@H](Cc1ccccc1)C(=O)N[C@@H](CC(=O)O)C(=O)N[C@@H](C)C(=O)N[C@]1(C)CCCCCCC=CCOC(=O)N2CC[C@@](C(=O)N[C@@H](Cc3ccccc3)C(=O)N[C@@H](Cc3c[nH]c4ccccc34)C(=O)N[C@@H](CCC(N)=O)C(N)=O)(C2)NC(=O)[C@H](C(C)C)NC(=O)[C@H](Cc2ccc(F)cc2)NC(=O)[C@H](C)NC(=O)[C@H](C)NC(=O)[C@H](CC(=O)O)NC(=O)[C@H](CC(=O)O)NC1=O` [I-78, Ac-Phe-Asp-Ala-R8-Asp-Asp-Ala-Ala-4FF-Val-PyrS-Phe-Trp-Gln-NH2], in data set [1] (setting [3]), the IC50 turned out to be 5 µM. The molecule also yielded a chromatographic logD in data set [2] (pH 7.4, CHI Log D) of 1.24. As for `CC(=O)N1CCC[C@]12CC=CCCCC1(CCCC=CCCCCCC[C@@](C)(C(=O)N[C@@H](Cc3ccccc3)C(=O)N[C@@H](Cc3c[nH]c4ccccc34)C(=O)N[C@@H](CCC(N)=O)C(N)=O)NC(=O)[C@H](C(C)C)NC(=O)[C@H](Cc3ccccc3)NC(=O)[C@H](C)NC(=O)[C@H](C)NC(=O)[C@H](CCC(=O)O)NC(=O)[C@H](CC(=O)O)NC1=O)NC(=O)[C@H](C)NC(=O)[C@H](CC(=O)O)NC2=O` (stereo partly drawn) [I-123, Ac-PL3-Asp-Ala-B5-Asp-Glu-Ala-Ala-Phe-Val-S8-Phe-Trp-Gln-NH2], in data set [1] (setting [3]), the IC50 amounted to 2.11 µM. Also, the chromatographic logD in data set [2] (pH 7.4, CHI Log D) is 1.98.

Take `CC(=O)N1CCC[C@]12CC=CCCCC1(CCCC=CCCCCCC[C@@](C)(C(=O)N[C@@H](Cc3ccccc3)C(=O)N[C@@H](Cc3c[nH]c4ccccc34)C(=O)N[C@@H](CCC(N)=O)C(N)=O)NC(=O)[C@H](C(C)C)NC(=O)[C@H](Cc3ccccc3)NC(=O)[C@H](C)NC(=O)[C@H](C)NC(=O)[C@H](CC(N)=O)NC(=O)[C@H](CC(=O)O)NC1=O)NC(=O)[C@H](C)NC(=O)[C@H](CC(=O)O)NC2=O` (stereo partly drawn) [I-125, Ac-PL3-Asp-Ala-B5-Asp-Asn-Ala-Ala-Phe-Val-S8-Phe-Trp-Gln-NH2]: the IC50 in data set [1] (setting [3]) and in data set [1] (setting [4]) was 3.06 µM throughout. In data set [2] (pH 7.4), the “CHI Log D” value amounted to 2.256. In the case of `CC(=O)N1CCC[C@]12CC=CCCCC1(CCCC=CCOC(=O)N(C)CCC[C@@](C)(C(=O)N[C@@H](Cc3ccccc3)C(=O)N[C@@H](Cc3c[nH]c4ccccc34)C(=O)N[C@@H](CCC(N)=O)C(N)=O)NC(=O)[C@H](C(C)C)NC(=O)[C@H](Cc3ccccc3)NC(=O)[C@H](C)NC(=O)[C@H](C)NC(=O)[C@H](CCC(=O)O)NC(=O)[C@H](CC(=O)O)NC1=O)NC(=O)[C@H](C)NC(=O)[C@H](CC(=O)O)NC2=O` (stereo partly drawn) [I-131, Ac-PL3-Asp-Ala-B5-Asp-Glu-Ala-Ala-Phe-Val-SeN-Phe-Trp-Gln-NH2], the IC50 in data set [1] (setting [3]) and in data set [1] (setting [4]) was 2.16 µM each time. Also, the “CHI Log D” value in data set [2] (pH 7.4) turned out to be 1.496.

On to `CC[C@H](C)[C@@H]1NC(=O)C[C@H](CC(=O)O)NC(=O)[C@]2(CC=CCCCC3(CCCC=CCCCCCC[C@@](C)(C(=O)N[C@@H](Cc4ccccc4)C(=O)N[C@@H](Cc4csc5ccccc45)C(=O)N[C@@H](CCC(N)=O)C(N)=O)NC(=O)[C@H](CCC(N)=O)NC(=O)[C@H](Cc4ccccc4)NC(=O)[C@H](C)NC(=O)[C@H](C)NC(=O)[C@H](CCC(=O)O)NC(=O)[C@H](CC(=O)O)NC3=O)NC1=O)CCCN2C(C)=O` (stereo partly drawn) [I-670, Ac-PL3-RbGlu-Ile-B5-Asp-Glu-Ala-Ala-Phe-Gln-S8-Phe-BztA-Gln-NH2], for which the “CHI Log D” value in data set [2] (pH 7.4) was determined as 2.16.

With `CC(=O)N1CCC[C@]12CC=CCCCC1(CCCC=CCCCOC(=O)N3CC[C@@](C(=O)N[C@@H](Cc4ccsc4)C(=O)N[C@@H](Cc4csc5ccccc45)C(=O)N[C@@H](CCC(N)=O)C(N)=O)(C3)NC(=O)[C@H](CC(N)=O)NC(=O)[C@H](Cc3ccccc3)NC(=O)[C@H](C)NC(=O)[C@H](C)NC(=O)[C@H](CC(=O)O)NC(=O)[C@H](CC(=O)O)NC1=O)NC(=O)[C@H](CC(C)(C)C)NC(=O)[C@H](CC(=O)O)NC2=O` (stereo partly drawn) [I-687, Ac-PL3-Asp-Npg-B5-Asp-Asp-Ala-Ala-Phe-Asn-PyrS2-3Thi-BztA-Gln-NH2], in data set [2] (pH 7.4), the “CHI Log D” value is 2.035 and the logD is 2.0.

As for `CC(=O)N1CCC[C@]12CC=CCCCC1(CCCC=CCCCCCC[C@@](C)(C(=O)N[C@@H](Cc3ccccc3)C(=O)N[C@@H](Cc3csc4ccccc34)C(=O)N(C)[C@@H](Cc3cnc[nH]3)C(N)=O)NC(=O)[C@H](CC(N)=O)NC(=O)[C@H](Cc3ccccc3)NC(=O)[C@H](C)NC(=O)[C@H](C)NC(=O)[C@H](CCC(=O)O)NC(=O)[C@H](CC(=O)O)NC1=O)NC(=O)[C@H](CC(C)C)NC(=O)[C@H](CC(=O)O)NC2=O` (stereo partly drawn) [I-746, Ac-PL3-Asp-Leu-B5-Asp-Glu-Ala-Ala-Phe-Asn-S8-Phe-BztA-NMeHis-NH2], in data set [2] (pH 7.4), the “CHI Log D” value was 2.372. Take `CC(=O)N1CCC[C@]12CC=CCCCC1(CCCC=CCCCCCC[C@@](C)(C(=O)N[C@@H](Cc3ccsc3)C(=O)N[C@@H](Cc3csc4ccccc34)C(=O)N[C@@H](CCC(N)=O)C(=O)N[C@H](C)C(=O)N[C@@H](C)C(=O)N[C@@H](C)C(N)=O)NC(=O)[C@H](CC(N)=O)NC(=O)[C@H](Cc3ccccc3)NC(=O)[C@H](C)NC(=O)[C@H](C)NC(=O)[C@H](CC(=O)O)NC(=O)[C@H](CC(=O)O)NC1=O)NC(=O)[C@H](CC(C)(C)C)NC(=O)[C@H](CC(=O)O)NC2=O` (stereo partly drawn) [I-875, Ac-PL3-Asp-Npg-B5-Asp-Asp-Ala-Ala-Phe-Asn-S8-3Thi-BztA-Gln-dAla-Ala]: the logD in data set [2] (pH 7.4, CHI Log D) was determined as 2.21. With `COCCOCCC(=O)NCCCC[C@@H]1NC(=O)[C@H](C)NC(=O)[C@H](CC(=O)O)NC(=O)[C@H](CC(=O)O)NC(=O)C2(CCCC=CCCCOC(=O)N3CC[C@@](C(=O)N[C@@H](Cc4ccsc4)C(=O)N[C@@H](Cc4csc5ccccc45)C(=O)N[C@@H](CCC(N)=O)C(N)=O)(C3)NC(=O)[C@H](CC(N)=O)NC(=O)[C@H](Cc3ccccc3)NC1=O)CCCC=CC[C@]1(CCCN1C(C)=O)C(=O)N[C@@H](CC(=O)O)C(=O)N[C@@H](CC(C)(C)C)C(=O)N2` (stereo partly drawn) [I-893, Ac-PL3-Asp-Npg-B5-Asp-Asp-Ala-[mPEG2]Lys-Phe-Asn-PyrS2-3Thi-BztA-Gln-NH2], the “CHI Log D” value in data set [2] (pH 7.4) worked out at 1.759.
